Assay results reported in patent US9662387B2, “Functional, cross-linked nanostructures for tandem optical imaging and therapy” (Mallinckrodt LLC, priority 2010, dated 2017).
Read-outs that look alike come from different tables or passages of the source.

How the values were obtained:
[1] = Core loading of phototherapeutic agent into micelles; format: physicochemical; settings: poly(p-hydroxystyrene) core; shown previously
Method: Core loading was achieved by addition of MP-3397 stock solution (in DMF) into aqueous micelle solution followed by removal of organic solvent through dialysis. Alternatively, MP-3397 stock solution incubated with block copolymer (both in DMF) underwent co-assembly upon addition of water followed by dialysis. In an example, poly(p-hydroxystyrene) core achieved maximum of 5 wt % core loading whereas polystyrene core achieved ca. 15 wt %.

[2] = test system: KB cells; assay: EST-1 cell viability assay using KB cells (cell cytotoxicity); format: cell-based; settings: Homo sapiens
Method: Table 3 provides 1050 data for the EST-1 cell viability assay using KB cells with 2 hour treatment with the particles described above. […] HPLC and MS analyses were in agreement with the determination of PTX concentration.
Table 5 provides results of cell cytotoxicity 1050 data for the EST-1 cell viability assay using KB cells with the particles described above. “ND” means not determined.

[3] = DOX release experiments from dialysis cassette, Higuchi fit and f1/f2 profile comparison; format: physicochemical; settings: at either pH value (5.0 or 7.4)
Method: General procedure for the DOX release experiments: To a presoaked dialysis cassette (Slide-A-Lyzer, 10 kDa MWCO, Pierce Biotechnology, Rockford Ill., USA) was added ca. 7 mL of the DOX-loaded SCK or SC-rod solution. The cassette was stirred in a beaker containing 4 L of 5 mM PBS at pH 5.0 or 7.4 and 37° C. for a period of 52 hrs. Samples (ca. 1 mL) were removed from the cassette at 0, 1, 2, 3, 5, 7, 9, 15, 21, 27, 39 and 52 h and analyzed by UV-vis spectroscopy (488 nm, ε=13050 M^−1 cm^−1) and injected back to the cassette immediately after the analysis. DOX release data points were then fitted to a third order polynomial equation.
DOX-SCR or DOX-SCK (ca. 4 mL) was transferred to a presoaked dialysis cassette (Slide-A-Lyzer, 10 kDa MWCO, Pierce Biotechnology, Rockford Ill., USA). […] Samples (ca. 1.5 mL) were removed from the cassette at 0, 1, 2, 4, 6, 9, 12, 18, 24, 30, 40, 50 and 60 h, analyzed by UV-vis (488 nm, 6=12500 M^−1cm^−1 determined by a calibration curve in PBS), and then returned to the cassette. […]
To further quantitatively understand the differences and similarities in DOX release profiles, model-independent methods were used to calculate f1, the difference factor, and f2, the similarity factor (F. O. Costa, J. J. S. Sousa, A. Pais, S. J. Formosinho, J. Controlled Release 2003, 89, 199; J. W. Moore, H. H. Flanner, Pharm. Tech. 1996, 20, 67.): […]

Work on `Oc1c(I)cc(I)c(-c2c(I)cc(I)c(O)c2I)c1I` [MP-4089] yielded a core loading [1] of 15 wt %.
For `CC(=O)O[C@H]1C(=O)[C@@]2(C)[C@H]([C@H](OC(=O)c3ccccc3)[C@]3(O)C[C@H](OC(=O)[C@H](O)[C@@H](NC(=O)c4ccccc4)c4ccccc4)C(C)=C1C3(C)C)[C@]1(OC(C)=O)CO[C@@H]1C[C@@H]2O` [Paclitaxel, paclitaxel], the IC50 ([2]; 2 hr treatment, 60 nm particles, read-out: PTX 2 hr IC50) was 50 nM, the IC50 ([2]; 72 hr, 60 nm particles, read-out: PTX 72 hr IC50) was 7 nM and the IC50 ([2]; after one day of loading, 10 nm vs. 20 nm particles, read-out: 2 hr IC50) was 45 nM. The IC50 ([2]; after two weeks of loading, 10 nm vs. 20 nm particles, read-out: 72 hr IC50) was 2 nM.
For doxorubicin [free DOX], the “time to complete release from the dialysis cassette” value [3] was ≤ 4 h and the “DOX release from the dialysis cassette” value ([3]; in 3 h) was 95%.
